Measured values from the NIST ThermoML archive (doi:10.1021/je200964m).
Several values for one entry are separate records, joined by “and”; a condition that tells them apart may be missing. Equal values may be shown once.

Tests used:
[1] = mn = molality of the nth substance listed, in mol/kg; settings: 298.15 K, 100 kPa, Liquid, Vibrating tube method
[2] = molar heat capacity at constant pressure; mn = molality of the nth substance listed, in mol/kg; settings: 298.15 K, 100 kPa, Liquid

CCC(=O)[O-].[Na+] [sodium propanoate] + O
[1]
Settings	mass density [kg/m3]
m1 = 0.01002	997.478
m1 = 0.02029	997.9
m1 = 0.04064	998.74
m1 = 0.06027	999.536
m1 = 0.08026	1000.38
m1 = 0.1002	1001.21
m1 = 0.1998	1005.24
m1 = 0.5005	1016.94
m1 = 0.7511	1026.37
m1 = 1	1035.33
m1 = 1.982	1067.68
m1 = 3.972	1119.87
m1 = 5.982	1158.32
m1 = 8.004	1185.89

[2], Flow calorimetry
Settings	molar heat capacity at constant pressure [J/K/mol]
m1 = 0.01002	75.35
m1 = 0.02029	75.37
m1 = 0.04064	75.41
m1 = 0.06027	75.44
m1 = 0.08026	75.47
m1 = 0.1002	75.51
m1 = 0.1998	75.69
m1 = 0.5005	76.31
m1 = 0.7511	76.87
m1 = 1	77.48
m1 = 1.982	80.19
m1 = 3.972	86.51
m1 = 5.982	92.7
m1 = 8.004	98.52

CC(=O)[O-].[Na+] [sodium ethanoate] + O
[1]
Settings	mass density
m1 = 0.01999	997.898 kg/m3
m1 = 0.02177	997.982 kg/m3
m1 = 0.03988	998.731 kg/m3
m1 = 0.04259	998.856 kg/m3
m1 = 0.06003	999.574 kg/m3
m1 = 0.06004	999.577 kg/m3
m1 = 0.08011	1000.41 kg/m3
m1 = 0.08018	1000.42 kg/m3
m1 = 0.1002	1001.25 kg/m3 and 1001.25 kg/m3
m1 = 0.25	1007.38 kg/m3
m1 = 0.4956	1017.13 kg/m3
m1 = 0.4998	1017.29 kg/m3
m1 = 0.9999	1036.14 kg/m3
m1 = 1.997	1070.48 kg/m3
m1 = 2.003	1070.59 kg/m3
m1 = 4.532	1141.59 kg/m3

[2], Flow calorimetry
Settings	molar heat capacity at constant pressure [J/K/mol]
m1 = 0.01999	75.34
m1 = 0.02177	75.33
m1 = 0.03988	75.34
m1 = 0.04259	75.33
m1 = 0.06003	75.33
m1 = 0.06004	75.33
m1 = 0.08011	75.34
m1 = 0.08018	75.34
m1 = 0.1002	75.34
m1 = 0.25	75.37
m1 = 0.4956	75.48
m1 = 0.4998	75.48
m1 = 0.9999	75.86
m1 = 1.997	77.13
m1 = 2.003	77.13
m1 = 4.532	81.99

CCCC(=O)[O-].[Na+] [sodium butyrate] + O
[1]
Settings	mass density [kg/m3]
m1 = 0.01976	997.868
m1 = 0.04005	998.697
m1 = 0.06005	999.507
m1 = 0.08053	1000.32
m1 = 0.102	1001.17
m1 = 0.2495	1006.98
m1 = 0.4997	1016.49
m1 = 0.7508	1025.47
m1 = 1	1034.04
m1 = 1.993	1064.55
m1 = 4	1109.06
m1 = 5.997	1136.24

[2], Flow calorimetry
Settings	molar heat capacity at constant pressure [J/K/mol]
m1 = 0.01976	75.41
m1 = 0.04005	75.47
m1 = 0.06005	75.54
m1 = 0.08053	75.61
m1 = 0.102	75.68
m1 = 0.2495	76.19
m1 = 0.4997	77.12
m1 = 0.7508	78.09
m1 = 1	79.11
m1 = 1.993	83.42
m1 = 4	91.23
m1 = 5.997	97.99

O=C[O-].[Na+] [sodium methanoate] + O
Settings	mass density, [1] [kg/m3]	molar heat capacity at constant pressure, [2] [J/K/mol]
m1 = 0.00974	997.482	74.69
m1 = 0.01004	997.512	74.71
m1 = 0.02003	997.907	74.79
m1 = 0.02065	997.932	74.7
m1 = 0.04058	998.75	74.71
m1 = 0.04064	998.753	74.79
m1 = 0.06027	999.589	74.76
m1 = 0.06153	999.685	74.66
m1 = 0.08026	1000.45	74.73
m1 = 0.08098	1000.47	74.63
m1 = 0.1002	1001.25	74.72
m1 = 0.1006	1001.27	74.62
m1 = 0.1998	1005.36	74.62
m1 = 0.25	1007.39	74.49
m1 = 0.5003	1017.41	74.3
m1 = 0.5005	1017.34	74.41
m1 = 0.75	1027.24	74.33
m1 = 0.7507	1027.17	74.18
m1 = 1	1036.61	73.86
m1 = 1.008	1037.01	74.26
m1 = 2	1072.42	74.32
m1 = 2.576	1092.07	75.46
m1 = 3.968	1134.81	75.93
m1 = 4	1135.38	75.98
m1 = 5.998	1188.91	78.43
m1 = 6.036	1190.2	77.81
m1 = 8.011	1235.13	81.13
m1 = 10.01	1275.62	84.02
